# Measured values: article PMC11593952 (International Journal of Molecular Sciences, 2024)
# Like-named read-outs stand apart in the source and are kept apart here.
# What was measured:
# [1] = in vivo; conditions: for exposure in the plasma, fold higher than CBD, L1, and L3: oral
# Description: (§1) Animal experiments were conducted in accordance with the National Institutes of Health Laboratory Animal Care and Use Guidelines. Male SPF SD rats from the Animal Center of Anhui Medical University (Hefei, China) were used for the experiment. […] At each time point (0.5, 1, 2, 4, and 8 h) after administration, samples of brain, heart, kidney, liver, lung, and spleen were collected from each rat for tissue distribution study. While for pharmacokinetic study, the plasma samples were gathered from the suborbital vein at 5, 15, 30, and 45 min and 1, 2, 4, 8, and 12 h after oral administration. The maintenance and treatment procedures for experimental animals were approved by the Animal Care and Use Committee of Anhui Medical University (approval number: LLSC20190274). Room temperature was 22 ± 2 °C, using a light/dark (12: 12 h) cycle, the animals were free to consume food and water one day before the experiment.
# (§2) An aliquot of 60 μL plasma sample was spiked with 60 µL aqueous ascorbic acid (0.1%) and 20 μL of IS working solution (300 ng/mL). After vortexing for 30 s, 400 µL MTBE was added to plasma sample for liquid–liquid extraction. The mixture was vigorously mixed for 10 min and centrifuged at 12,000 rpm at 4 °C for 5 min; approximately 400 µL of supernatant was transferred to a clean 1.5 mL centrifuge tube and dried under a gentle stream of nitrogen gas. Subsequently, the residue was reconstituted with 100 µL of MeOH/water (7: 3, v/v), vortex-mixed for 2 min, and followed by centrifugation at 12,000 rpm for 20 min. Finally, 20 μL of the supernatant was injected into the UPLC-HRMS system for measurement. The tissue sample (100 mg) was homogenized in normal saline solution (1 mL), 600 μL homogenate sample was spiked with 60 µL aqueous ascorbic acid (0.1%) and 50 μL of the IS working solution (1000 ng/mL), and 1.2 mL MTBE was added for extraction. Then, 1 mL of supernatant was dried and proceeded as plasma sample pretreatment (Figure S1).
# (§3) Quantitative analysis using Dionex Ultimate 3000 chromatography hyphenated to Q-Exactive plus Orbitrap mass spectrometer system (Thermo Fisher Scientific, Waltham, MA, USA). The analytes were detected in Full MS/dd-MS^2 mode to choose the parent ion and optimize the retention time; then, we used the parallel reaction monitoring (PRM) mode through positive ionization condition for determination. Xcalibur 4.1 software (Thermo Fisher Scientific) was used for data acquisition and processing.
# Chromatographic separation was achieved on a Shimadzu-pack GIST column (50 mm × 2.1 mm, 2 μm, Shimadzu Company, Kyoto, Japan). Binary mobile solvents consisted of water (containing 0.1% FA, v/v) (A) and acetonitrile (B), the gradient program was as follows: 0 min 60% A → 1 min 60% A → 1.5 min 20% A → 7 min 20% A → 7.1 min 60% A → 8.5 min 60% A. The flow rate was set at 0.30 mL/min and the column temperature was 40 °C. The typical source parameters were optimized as follows: spray voltage: 4500 V; capillary temperature: 320 °C; auxiliary gas heater temperature: 200 °C; pressure of sheath gas: 320 kPa; auxiliary gas: 50 kPa.
# Phoenix/WinNonlin software (version 6.4; Pharsight, Mountain View, CA, USA) was used to calculate the AUC and other pharmacokinetic parameters in plasma or tissue for each drug in a non-compartmental model.
# [2] = cited from earlier work
# [3] = system: eqBuChE; conditions: eqBuChE from horse serum; mean ± SEM, at least three experiments; read-out: IC50 BuChE; cited from earlier work
# [4] = system: eeAChE; conditions: eeAChE from electric eel, cited from earlier work; for IC50: mean ± SEM, at least three experiments
# [5] = in vivo; conditions: for Cmax / Kp / selectivity ratio: male, SD, rat, in vivo; for Cmax / Kp: po; for Cmax: 15 mg/kg; for Kp: AUCtissue/AUCplasma; for AUCbrain: brain; for AUCheart: heart; for AUCkidney: kidney; for AUCliver: liver; for AUClung: lung; for AUCspleen: spleen
# Description: Drug exposure in tissue is calculated by drug exposure in the plasma and tissue/plasma distribution coefficient (Kp), as shown in Equation (1):Drug exposure in the tissue = drug exposure in the plasma × Kp(1) where drug exposure in the plasma and the tissue can be calculated by the drug concentration vs. time curve, and Kp values can be calculated by Ctissue/Cplasma or AUCtissue/AUCplasma. […] It is worth mentioning that Kp can be evaluated by the ratio of free fraction of drug candidate in plasma vs. in tissues in steady state. Nevertheless, this assessment is based on “free drug hypothesis” theory, which presumes that free drug concentration in tissue is close to that in plasma.
# Dose escalation tests are always evaluated during clinical phase I/II trials, and MTD is constantly associated with drug exposure in certain toxicity-related organs. […] To evaluate the balance between efficacy and toxicity for drug candidates, drug tissue selectivity is a crucial parameter and defined as follows in Equation (2), where the sum of Ctissue or AUCtissue is total drug concentration or AUC in different tissues. Drug tissue selectivity = Ctissue/ΣCtissue or AUCtissue/ΣAUCtissue(2)
# as §1, §2, §3
# Chromatographic separation was achieved on a Shimadzu-pack GIST column (50 mm × 2.1 mm, 2 μm, Shimadzu Company, Kyoto, Japan).
# [6] = male, SD, rat, in vivo, po, 15 mg/kg
# [7] = rats, single intragastric 15 mg/kg, plasma
SMILES,"AUC [1, 6] [ng·h/mL]","AUC(0-inf) [1, 6] [ng·h/mL]","AUC(0-t) [1, 6] [ng·h/mL]","Cmax [1, 6] [ng/mL]","MRT last [1, 6] [h]","Tmax [1, 6] [h]","half-life [1, 6] [h]","CL [1, 7] [mL/min/kg]","Vd [1, 7] [L/kg]",IC50 [3] [nM],IC50 [4] [nM],also measured
"C=C(C)[C@@H]1CCC(C)=C[C@H]1c1c(O)cc(CCCCC)cc1O [CBD, Cannabidiol, reference compound]",158,168 ± 11.5,158 ± 10.6,48.9 ± 11,2.84 ± 0.23,1.2 ± 0.45,3.7 ± 1.26,1492 ± 107,474.16 ± 155.23,670 ± 60,17100 ± 2430,Tmax (reported values) [2]: 0 to 4 h; t1/2 (reported values) [2]: 1.4 to 10.9 h
C=C(C)C1CCC(C)=CC1c1c(O)cc(CCCCC)cc1OC(=O)NC (stereo not shown) [Compound L1],191,197 ± 58,191 ± 58.7,120 ± 15.9,2.05 ± 0.47,0.22 ± 0.07,2.7 ± 1.27,1353 ± 361.8,319.94 ± 171.55,128 ± 22,18900 ± 1110,"metabolism to CBD observed in plasma ([1]; rats, intragastric administration): can be metabolized to produce CBD"
C=C(C)C1CCC(C)=CC1c1c(O)cc(CCCCC)cc1OC(=O)N(C)CC (stereo not shown) [Compound L2],,,,127 ± 23.6,3.44 ± 0.22,1.8 ± 0.45,2.64 ± 0.45,434.5 ± 74.8,99.38 ± 23.95,77 ± 5,15000 ± 1020,"exposure in the plasma, fold higher than CBD, L1, and L3 ([1]; rats): > 3 fold; Cmax [5]: 56 ng/g; Kp ([5]; Kp brain, rats): 0.42; Kp ([5]; Kp heart, rats): 2.63; Kp ([5]; Kp kidney, rats): 5.51; Kp ([5]; Kp liver, rats): 5.3; Kp ([5]; Kp lung, rats): 3.27; Kp ([5]; Kp spleen, rats): 2.41; selectivity ratio ([5]; tissue selectivity in the brain, fold higher than L4, AUCtissue/ΣAUCtissue, L2 vs L4): 21; selectivity ratio ([5]; tissue selectivity in the kidney, fold lower than L4, AUCtissue/ΣAUCtissue, L2 vs L4): 1.2; selectivity ratio ([5]; tissue selectivity in the liver, fold lower than L4, AUCtissue/ΣAUCtissue, L2 vs L4): 1.8; AUCbrain ([5]; rats, oral 15 mg/kg): 213.8 ng·h/g; AUCheart ([5]; rats, oral 15 mg/kg): 1331.9 ng·h/g; AUCkidney ([5]; rats, oral 15 mg/kg): 2790.2 ng·h/g; AUCliver ([5]; rats, oral 15 mg/kg): 2684.5 ng·h/g; AUClung ([5]; rats, oral 15 mg/kg): 1655.0 ng·h/g; AUCspleen ([5]; rats, oral 15 mg/kg): 1220.9 ng·h/g; exposure in the kidney, fold lower than L4 ([5]; rats, oral 15 mg/kg, L2 vs L4): 2.8 fold; exposure in the liver, fold lower than L4 ([5]; rats, oral 15 mg/kg, L2 vs L4): 1.8 fold; brain concentration relative to L4 ([5]; rats, oral, L2 vs L4): fivefold higher"
C=C(C)C1CCC(C)=CC1c1c(O)cc(CCCCC)cc1OC(=O)N1CCCC1 (stereo not shown) [Compound L3],182,200 ± 32.5,182 ± 13.9,60 ± 8.63,2.72 ± 0.6,0.95 ± 0.11,3.09 ± 1.52,1273 ± 194.7,320.94 ± 106.75,390 ± 40,,
C=C(C)C1CCC(C)=CC1c1c(O)cc(CCCCC)cc1OC(=O)N(C)Cc1ccc(Cl)cc1 (stereo not shown) [Compound L4],,,,211 ± 30.7,2.38 ± 0.21,0.8 ± 0.11,2.17 ± 0.19,483.2 ± 100,91.52 ± 22.81,5.3 ± 1.2,,"exposure in the plasma, fold higher than CBD, L1, and L3 ([1]; rats): > 3 fold; Inhibition Rate % at 20 µM, AChE ([4]; at 20 µM): 21.4 ± 2.8%; Cmax [5]: 19 ng/g; Kp ([5]; Kp brain, rats): 0.088; Kp ([5]; Kp heart, rats): 15.1; Kp ([5]; Kp kidney, rats): 15.7; Kp ([5]; Kp liver, rats): 10.1; Kp ([5]; Kp lung, rats): 15.1; Kp ([5]; Kp spleen, rats): 11.7; AUCbrain ([5]; rats, oral 15 mg/kg): 43.2 ng·h/g; AUCheart ([5]; rats, oral 15 mg/kg): 7431.3 ng·h/g; AUCkidney ([5]; rats, oral 15 mg/kg): 7723.4 ng·h/g; AUCliver ([5]; rats, oral 15 mg/kg): 4951.2 ng·h/g; AUClung ([5]; rats, oral 15 mg/kg): 7421.8 ng·h/g; AUCspleen ([5]; rats, oral 15 mg/kg): 5773.9 ng·h/g"
C=C(C)[C@@H]1CCC(C)=C[C@H]1c1c(O)cc(CCCCC)cc1O [L1→CBD],,,,,,,,1718.8 ± 707.3,577.46 ± 442.26,,,"AUC0-T [1, 7]: 165.91 ± 87.56 ng·h/mL; AUC0-∞ [1, 7]: 172.51 ± 84.52 ng·h/mL; Cmax [1, 7]: 94.59 ± 27.06 ng/mL; MRT0-T [1, 7]: 2.21 ± 0.42 h; Tmax [1, 7]: 0.27 ± 0.15 h; t1/2 [1, 7]: 3.43 ± 1.64 h"
CNC(=O)Oc1ccc2c(c1)[C@]1(C)CCN(C)[C@@H]1N2C [physostigmine],,,,,,,,,,,,"drug concentration in brains after oral vs intramuscular administration, times less [2]: 350 times; drug concentration in plasma after oral vs intramuscular administration, times less [2]: 200 times; bioavailability ([2]; first-pass metabolism): 2%"
"CCN(C)C(=O)Oc1cccc([C@H](C)N(C)C)c1 [rivastigmine, reference compound]",,,,,,,,,,,,bioavailability [2]: 36–40%
